Results as given in PubChem BioAssay AID2305 (GlaxoSmithKline (GSK), 2010).
“And” between values parts separate entries of the source, which are not always exact repeats. Equal values may be shown once.

The compounds below were run on P. falciparum 3D7 growth, pLDH absorbance (assay: P. falciparum 3D7 growth inhibition, dose response, strain 3D7 (AID 2305)).

Compound	IC50
CCC[C@@H]([C@@H](CC1CCCCC1)C(=O)N[C@H](C(=O)Nc1nccs1)[C@@H](C)OCc1ccccc1)N(O)C=O	0.08 µM
CCOC(=O)c1ccc2nc(-c3ccc(C(=O)NCc4ccc(C(C)(C)C)cc4)cc3)[nH]c2c1	0.85 µM
Cc1ccc(S(=O)(=O)NC2=NC(C)(C)N(OCc3ccc(Cl)c(Cl)c3)C(N)=N2)cc1	1.14 µM
CC(Cc1ccc(SC(C)(C)C)cc1)NCC(O)c1cccc(Cl)c1 (configuration not stated)	0.32 µM
Fc1ccccc1C=NNc1ccnc2ccccc12	0.89 µM
Nc1ncc(-c2ccc3nccc(-c4ccncc4)c3c2)cc1S(=O)(=O)N1CCCCC1	0.58 µM
Nc1ncc(-c2ccccc2)cc1-c1cccc2ncccc12	0.27 µM
CC(C)(C)c1ccc(NC(=O)c2cccc(CN3CCCN(Cc4ccsc4)CC3)c2)cc1	0.76 µM
CCCCOP(=O)(COc1ccc(CCN(CC(O)COc2cccc3[nH]c4ccccc4c23)CC(O)COc2cccc3[nH]c4ccccc4c23)cc1)C1CCCCC1 (configuration not stated)	0.94 µM
CCN1CCN(c2cc(C)c3cc(NC(=O)c4ccc(OC)c(OC)c4)ccc3n2)CC1	1.03 µM
Cc1cccc2[nH]c(-c3ccc(-c4cccc(CNCc5ccc(CN)cc5)c4)s3)nc12	0.61 µM
Brc1cc(CNCCCNc2nc3ccccc3[nH]2)sc1Br	0.22 µM
N#Cc1ccc2c(c1)CN(C1CCC(NC(=O)c3cc(-c4ccc(Cl)cc4)cs3)CC1)CCC2 (configuration not stated)	0.96 µM
FC(F)(F)c1ccc2nc(-c3ccc(-c4ccc(CN5CCN(c6ccncc6)CC5)cc4)cc3)[nH]c2c1	0.06 µM
CCn1c(-c2nonc2N)nc2c(-c3cccc(NC(=O)Nc4cccc(Cl)c4)c3)ncc(OCCCN)c21	0.94 µM
Cc1cc(CN2CC[C@H](NC(=O)c3ccc(Cl)c(Cl)c3)C2)ccc1OCCN1CCCC1	1.16 µM
COc1cc(Cc2cnc(N)nc2N)cc(OCc2cccc(C(=O)O)c2)c1OC	0.83 µM
O=c1ccc(CNc2nc(NCCc3ccccc3)nc3ccc(Cl)cc23)c[nH]1	0.78 µM
Cc1cccc2[nH]c(-c3cccc(-c4cccc(CN5CCN(c6ccncc6)CC5)c4)c3)nc12	0.2 µM
CN(C)CC(O)COc1ccc(Nc2ncc([N+](=O)[O-])c(Nc3ccccc3O)n2)cc1 (configuration not stated)	0.76 µM
O=c1[nH]c2c(c(O)c1[N+](=O)[O-])CCC2	1.05 µM
CC(=O)Nc1nc(C(=O)Nc2cccc(-c3ccc(-c4nc5c(C)cccc5[nH]4)s3)c2)cs1	0.22 µM
N=C(N)c1ccc(C=CC(=O)NCC(O)CNC(=O)C=Cc2ccc(C(=N)N)cc2)cc1 (configuration not stated)	0.03 µM
Cc1cc(NCCC(=O)Nc2ccccc2)nc(NCc2ccccc2C)n1	0.66 µM
Fc1ccc2c(NN=Cc3ccccc3F)ccnc2c1	0.56 µM

Compound	IC50
CCOCCCn1c(=N)c(C(=O)NCc2ccc(OC)cc2)cc2c(=O)n3cccc(C)c3nc21	1.06 µM
Clc1cccc(C23N=C(Nc4nc5ccccc5[nH]4)NC2(c2ccccc2)NC(Nc2nc4ccccc4[nH]2)=N3)c1 (configuration not stated)	0.52 µM
COc1ccccc1-n1ccnc1SCC(=O)Nc1cc(C(F)(F)F)ccc1Cl	0.01 µM
O=C(Nc1ccc(Cl)cc1)N(CC1C[C@H]2CC[C@@H](C1)N2Cc1ccc(C(F)(F)F)cc1)c1ccc(N2CCOCC2)c(F)c1 (some centres not stated)	1.07 µM
COc1cccc(-c2[nH]c3ccccc3c2CN2CCC(c3c(C)cccc3C)CC2)c1	1.02 µM
Cc1[nH]c2c(c(=O)c1Cl)-c1ccc(Oc3cccc(C(F)(F)F)c3)cc1C2=O	0.04 µM
N=c1n(Cc2ccccc2)c2ccccc2n1CC(O)c1ccc(Cl)cc1 (configuration not stated)	0.88 µM
CN(CC(=O)Nc1ccc(F)c(F)c1F)c1ncnc2sc(-c3ccccc3)cc12	0.87 µM
Cc1cc2nc(NC3=NC4(c5ccccn5)N=C(Nc5nc6cc(C)c(C)cc6[nH]5)NC4(c4ccccn4)N3)[nH]c2cc1C (configuration not stated)	0.68 µM
NC1=NC(c2ccccc2)(c2ccccc2)C(=O)N1CC=Cc1ccccc1	0.6 µM
COC(=O)c1ccc(CC(C)NCC(O)c2cccc(C(F)(F)F)c2)cc1 (configuration not stated)	0.97 µM and 1.15 µM
COc1ccc2c(=O)c(-c3ccc(OC(F)(F)F)cc3)c(C)[nH]c2c1	0.23 µM
CN1CCN(CC(=O)Nc2cccc(-c3ccc(-c4nc5ccc(F)cc5[nH]4)cc3)c2)CC1	0.7 µM
CCn1c(-c2ccccc2)cc2nnc3ccccc3c21	0.77 µM
Cc1cc(C(=O)Nc2ccc3c(c2)CCN3C2CCN(Cc3cccc(F)c3F)C2)no1 (configuration not stated)	0.58 µM
c1cc2nc(CCc3nc4ccc(C5=N[C@H]6CCCC[C@H]6N5)cc4[nH]3)[nH]c2cc1C1=N[C@@H]2CCCC[C@@H]2N1	0.23 µM
CS(=O)(=O)CCNCc1ccc(-c2cc3c(Nc4ccc(OCc5cccc(F)c5)c(Cl)c4)ncnc3s2)[nH]1	0.84 µM
COc1ccc2nccc([C@@H](O)CN3CCC(NC(=O)/C=C/c4ccnc5ccccc45)CC3)c2c1	0.94 µM
CN1CCCC(CN2CCN(Cc3cccc(-c4ccc(-c5nc6ccccc6[nH]5)s4)c3)CC2)C1 (configuration not stated)	0.15 µM
CCCCOc1cc2c(cc1OCC)C(C=Cc1ccc(Cl)cc1Cl)=NCC2	0.4 µM
CC1(C)CCCN(C(=O)Cc2ccc3c(c2)CCCC3)C1CN1CC=CC1 (configuration not stated)	0.72 µM
COc1cc2nc(NCC3CCCO3)n3nc(-c4ccccc4)nc3c2cc1OC (configuration not stated)	0.21 µM
O=C(NCc1cccc(OC(F)(F)F)c1)c1cnc2c(c1)nc(-c1cnc(-c3ccccc3)[nH]1)n2CCc1cnc[nH]1	0.68 µM
COc1ccc2c(=O)c(Br)c(C)[nH]c2c1	0.19 µM
Cn1ccnc1CNC(=O)c1ccc(-c2cccc(-c3nc4ccc(F)cc4[nH]3)c2)cc1	0.98 µM

Compound	IC50
N#Cc1ccc(C(=O)Nc2ccc(Cl)c(N3CCN(CCc4ccccc4)CC3)c2)cc1	0.93 µM
O=C(Nc1ccc(OC2CCN(Cc3ccccc3)CC2)c(Cl)c1)c1ccco1	0.41 µM
CNC(=O)c1ccc2[nH]cc(C3CCN(CC4CCN(C(=O)/C=C/c5ccc(Cl)c(Cl)c5)CC4)CC3)c2c1	1.52 µM
O=C(O[C@H]1CN[C@H](C#Cc2cc3c(Nc4ccc(OCc5cccc(F)c5)c(Cl)c4)ncnc3s2)C1)N1CCCC1	0.71 µM
O=C(Nc1ccccc1F)N(CCCn1ccnc1)Cc1csc(-c2ccc(CNCc3ccccc3)cc2)n1	0.84 µM
Cc1cc(OCCCNc2nc(NCCc3ccc(O)cc3)nc(N3CCNCC3)n2)c(Cl)c(C)c1Cl	0.96 µM
O=S(=O)(NCCN1CCCC1)c1cccc(-c2cccc(CNCc3ccccc3)c2)c1	0.81 µM
COc1ccc(NC(=O)NCC2CCCN(CCCCCNC(=O)/C=C/c3ccc(Cl)c(Cl)c3)C2)c(OC)c1 (configuration not stated)	0.86 µM
Nc1ncc(-c2ccc(F)cc2)cc1-c1nc2ccc(Cl)cc2[nH]1	0.75 µM
O=C(Nc1ccc(OC2CCN(Cc3ccsc3)C2)c(Cl)c1)c1ccco1 (configuration not stated)	0.6 µM
O=C(CN1CCCC1)Nc1cccc(C(=O)Nc2cccc(C(F)(F)F)c2)c1	0.51 µM
CC[C@H]1CN2CC[C@H]1C[C@H]2[C@H](O)c1cc(-c2ccc(OC(F)(F)F)cc2)nc2ccc(OC)cc12	0.05 µM
O=C(/C=C/c1ccc(Cl)c(Cl)c1)NCCCCCN1CCCN(C(=O)Nc2cccc(C(F)(F)F)c2)CC1	0.87 µM
Fc1cc(Cl)ccc1Nc1ccnc2cc(I)ccc12	1.13 µM
Cc1ccc(O)cc1Nc1ccnc2cc(-c3ccccn3)ccc12	0.76 µM
COc1ccc(CN(C)CCCc2ccc(NC(=O)c3cc4ccccc4[nH]3)cc2)cc1OC	0.73 µM
COc1ccc(CNC(=O)NC2CCN(c3ccnc(Nc4ccc(OC)cc4)n3)C2)cc1 (configuration not stated)	1 µM
Cc1cc(NCCCOc2ccc(Cl)cc2)nc(NCc2ccccc2)n1	0.78 µM
NC(N)=Nc1nccc(NCc2ccccc2)n1	0.89 µM
CCC[C@@H]([C@@H](CC1CCCCC1)C(=O)N[C@H](C(=O)Nc1nccs1)C(C)(C)SC)N(O)C=O	0.15 µM
COc1cccc2c(NN=Cc3ccccc3[N+](=O)[O-])ccnc12	0.59 µM
O=C(Nc1ccc(-c2cccc(-c3nc4ccc(C(F)(F)F)cc4[nH]3)c2)cc1)Nc1ccc(Cl)c(Cl)c1	0.75 µM
CC1=C(C(=O)OC(C)C)C(c2ccccc2Cl)C2=C(CC(c3ccccc3)CC2=O)N1 (configuration not stated)	0.85 µM
Cc1cc(N[C@@H](Cc2ccccc2)C(=O)NCc2cccc(F)c2)nc(Nc2ccccc2)n1	0.93 µM
Cc1[nH]c(C)c(-c2ccc(-c3ccccc3F)nc2)c(=O)c1Br	0.4 µM

Compound	IC50
O=C(NCCOc1ccccc1)[C@H](Cc1ccccc1)Nc1ccnc(NCC2CCCCC2)n1	1.2 µM
Cc1ccc(NC(=O)c2ccc(N3CCC(c4ccccc4C)CC3)nc2)cc1	1.4 µM
CCn1cc(-c2cc(C(=O)Nc3ccc(OC)cc3C)c3ccccc3n2)c(C)n1	0.98 µM
CN(C)c1ccc(-c2ccc(C(=O)NC3CCN(Cc4ccc5c(c4)OCCO5)CC3)s2)cc1	1.12 µM
CC(C)C[C@H]1C(=O)N[C@H](C2Cc3ccccc3C2)C(=O)N1[C@@H](C(=O)Nc1ccccc1OCc1ccccc1)c1ccc(F)cc1F	1.02 µM
CCC(C)c1ccc(Nc2nc(C)cc(N(CC)CCCN3CCCCC3)n2)cc1 (configuration not stated)	0.33 µM
O=C(NC1CCN(Cc2ccc3c(c2)OCCO3)CC1)c1ccc(-c2cccc(C(F)(F)F)c2)s1	1.83 µM
Cc1cc(N)nc2ccc(-c3cccc(CN)c3)cc12	0.71 µM
COc1ccc(C2CC(=O)C3=C(C2)NC(C)=C(C(=O)OC2CCCC2)C3c2ccc(O)cc2)cc1OC (configuration not stated)	0.57 µM
COc1cc(OC)c2c(c1Cl)O[C@]1(C2=O)C(=O)C(Cc2ccccc2)(Cc2ccccc2)C(=O)C[C@H]1C	0.97 µM
N#Cc1ccc(CN2CCC(Oc3ccc(NC(=O)c4cccs4)cc3)C2)cc1 (configuration not stated)	0.95 µM
Cc1[nH]c(C)c(Cc2ccc(Oc3ccc(OC(F)(F)F)cc3)cc2)c(=O)c1Br	0.69 µM
O=S(=O)(c1cc2ccccc2s1)N(CCC(O)(C(F)(F)F)C(F)(F)F)Cc1cccc(O)c1	0.75 µM
Cc1cc(NC(=O)c2ccsc2)ccc1OC1CCN(Cc2ccc(F)cc2)CC1	1.22 µM
CCCc1ccc(Cc2cnc3nc(N)nc(N)c3c2C)cc1	0.28 µM
O=S(=O)(NCCN1CCCC1)c1ccc(-c2ccc(CNC3Cc4ccccc4C3)cc2)s1	0.59 µM
Nc1nccc2ccc(-c3ccc(Oc4ccccc4)cc3)cc12	0.28 µM
O=C(NC1CCN(Cc2ccccc2)CC1)c1ccc(CNC2CCN(Cc3ccccc3)CC2)cc1	0.87 µM
Nc1nc(N)c2c(ccc3[nH]c(-c4ccccc4Cl)nc32)n1	0.23 µM
O=C(Nc1cccc(-c2ccc(-c3nc4ccccc4[nH]3)cc2)c1)c1csnn1	1.07 µM
CC(C)(C)c1ccc(CN2CCC(NC(=O)c3ccc(-c4cccc(Cl)c4)s3)CC2)cc1	1.07 µM
COc1ccc(S(=O)(=O)N2CCC3(CC2)OCC(=O)NC3c2ccc(Cl)c(Cl)c2)cc1 (configuration not stated)	0.64 µM
